Experimental data published in patent US11396502B2, “Substituted heterocyclic derivatives as PI3K inhibitors” (Incyte Corporation, priority 2018, dated 2022).
Structures can show the parent of a compound that is named as a salt. Where two headings read alike, the source gives them in different places.

Experiments:
PI3Kγ (p110γ) = PI3Kγ (p110γ) (Homo sapiens (Human), UniProt P48736); test: PI3K-γ scintillation proximity assay; type: biochemical; settings: recombinant human PI3Kγ 13 nM, 20 μM PIP2, 2 μM ATP, 120 min, room temperature
Procedure, shortened: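 Recombinant human p110γ (13 nM) with 20 μM PIP2, 2 μM ATP plus [γ-33P]ATP in 20 mM MOPS pH 6.7, 10 mM MgCl2, 5 mM DTT, 0.03% CHAPS, 2% DMSO. Reaction ran 120 min at room temperature, then was quenched with EDTA and read with WGA SPA beads. IC50 came from percent-of-solvent-control curves.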

PI3Kδ (p110δ/p85α) = PI3Kδ (p110δ/p85α) (Homo sapiens (Human), UniProt O00329); test: PI3Kδ scintillation proximity assay; type: biochemical; settings: recombinant human PI3Kδ 3.4 nM, 20 μM PIP2, 2 μM ATP, 120 min, room temperature
Procedure, shortened: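 Recombinant p110δ/p85α (3.4 nM) with 20 μM PIP2, 2 μM ATP plus [γ-33P]ATP in MOPS pH 6.7, MgCl2, DTT, CHAPS, 2% DMSO; 120 min, room temperature. EDTA-quenched product captured on WGA SPA beads, scintillation counted. IC50 from percent solvent-control activity versus log inhibitor concentration.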

[1] = system: Phosphorylated Ribosomal Protein S6 (RPS6) in THP-1 cells; test: THP-1 RPS6 ELISA assay; type: cell-based, Human; settings: 2 hours compound, 10 nM MCP-1 for 15 minutes, Phospho-RPS6 ELISA, read-out: PI3Kγ_THP1_RPS6_ELISA IC50
Procedure, shortened: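 Phospho-RPS6 in lysates measured by ELISA at 450 nm, corrected at 540 nm, after MCP-1 challenge (10 nM, 15 min) of THP-1 cells that were starved overnight and exposed to test compound for 2 h at 37° C, 2×10^5 cells/well. Curve fit of percent inhibition gives IC50.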

[2] = Homo sapiens, THP-1, serum starved THP-1 cells

PI3Kδ (p110δ/p85α), sequence (O00329 whole entry): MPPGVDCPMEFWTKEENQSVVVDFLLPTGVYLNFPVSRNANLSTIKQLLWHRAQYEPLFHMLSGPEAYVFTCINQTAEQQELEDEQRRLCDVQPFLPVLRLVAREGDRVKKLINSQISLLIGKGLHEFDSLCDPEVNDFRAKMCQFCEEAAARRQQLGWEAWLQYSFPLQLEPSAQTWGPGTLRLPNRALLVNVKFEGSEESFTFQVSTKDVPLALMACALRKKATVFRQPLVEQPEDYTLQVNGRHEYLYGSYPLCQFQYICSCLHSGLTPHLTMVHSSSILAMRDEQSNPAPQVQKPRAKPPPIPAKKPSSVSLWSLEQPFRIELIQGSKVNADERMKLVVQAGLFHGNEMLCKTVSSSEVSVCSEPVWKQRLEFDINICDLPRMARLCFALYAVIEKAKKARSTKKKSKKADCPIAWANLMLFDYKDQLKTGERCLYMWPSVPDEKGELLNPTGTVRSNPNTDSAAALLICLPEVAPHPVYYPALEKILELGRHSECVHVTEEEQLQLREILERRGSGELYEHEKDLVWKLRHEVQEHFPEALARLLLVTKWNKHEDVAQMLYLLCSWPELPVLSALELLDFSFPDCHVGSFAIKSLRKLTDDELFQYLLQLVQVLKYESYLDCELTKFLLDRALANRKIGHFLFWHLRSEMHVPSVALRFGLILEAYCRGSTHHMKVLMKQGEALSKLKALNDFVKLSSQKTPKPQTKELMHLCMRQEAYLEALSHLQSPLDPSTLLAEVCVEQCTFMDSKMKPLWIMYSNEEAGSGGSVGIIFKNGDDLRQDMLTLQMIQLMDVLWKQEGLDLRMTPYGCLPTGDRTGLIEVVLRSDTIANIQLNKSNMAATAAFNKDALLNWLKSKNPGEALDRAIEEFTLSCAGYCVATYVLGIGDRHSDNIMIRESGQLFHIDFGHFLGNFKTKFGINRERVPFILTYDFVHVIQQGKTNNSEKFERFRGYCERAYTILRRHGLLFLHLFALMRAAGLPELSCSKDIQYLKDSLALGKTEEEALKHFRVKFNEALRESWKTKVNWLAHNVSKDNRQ
PI3Kδ (p110δ/p85α), sequence (P27986 whole entry partner): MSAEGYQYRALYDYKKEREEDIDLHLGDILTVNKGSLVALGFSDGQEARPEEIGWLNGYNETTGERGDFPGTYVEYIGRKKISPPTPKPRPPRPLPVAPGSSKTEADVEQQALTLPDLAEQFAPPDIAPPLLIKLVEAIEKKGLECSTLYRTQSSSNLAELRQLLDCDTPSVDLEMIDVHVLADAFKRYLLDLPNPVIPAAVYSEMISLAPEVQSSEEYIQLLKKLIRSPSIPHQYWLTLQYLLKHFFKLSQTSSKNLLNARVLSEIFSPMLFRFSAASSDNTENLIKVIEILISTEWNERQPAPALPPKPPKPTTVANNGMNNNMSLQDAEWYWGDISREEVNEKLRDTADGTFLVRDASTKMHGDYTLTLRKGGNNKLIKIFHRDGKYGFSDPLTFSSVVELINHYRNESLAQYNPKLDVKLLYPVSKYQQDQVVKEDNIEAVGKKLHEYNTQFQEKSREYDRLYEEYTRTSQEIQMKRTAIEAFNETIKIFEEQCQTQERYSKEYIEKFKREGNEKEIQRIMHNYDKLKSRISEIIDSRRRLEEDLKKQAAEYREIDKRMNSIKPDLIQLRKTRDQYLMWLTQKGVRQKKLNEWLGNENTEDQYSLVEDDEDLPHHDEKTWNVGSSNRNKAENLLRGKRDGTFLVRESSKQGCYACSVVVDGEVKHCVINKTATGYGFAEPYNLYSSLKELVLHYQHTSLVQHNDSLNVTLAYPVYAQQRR
PI3Kγ (p110γ), sequence (P48736 whole entry): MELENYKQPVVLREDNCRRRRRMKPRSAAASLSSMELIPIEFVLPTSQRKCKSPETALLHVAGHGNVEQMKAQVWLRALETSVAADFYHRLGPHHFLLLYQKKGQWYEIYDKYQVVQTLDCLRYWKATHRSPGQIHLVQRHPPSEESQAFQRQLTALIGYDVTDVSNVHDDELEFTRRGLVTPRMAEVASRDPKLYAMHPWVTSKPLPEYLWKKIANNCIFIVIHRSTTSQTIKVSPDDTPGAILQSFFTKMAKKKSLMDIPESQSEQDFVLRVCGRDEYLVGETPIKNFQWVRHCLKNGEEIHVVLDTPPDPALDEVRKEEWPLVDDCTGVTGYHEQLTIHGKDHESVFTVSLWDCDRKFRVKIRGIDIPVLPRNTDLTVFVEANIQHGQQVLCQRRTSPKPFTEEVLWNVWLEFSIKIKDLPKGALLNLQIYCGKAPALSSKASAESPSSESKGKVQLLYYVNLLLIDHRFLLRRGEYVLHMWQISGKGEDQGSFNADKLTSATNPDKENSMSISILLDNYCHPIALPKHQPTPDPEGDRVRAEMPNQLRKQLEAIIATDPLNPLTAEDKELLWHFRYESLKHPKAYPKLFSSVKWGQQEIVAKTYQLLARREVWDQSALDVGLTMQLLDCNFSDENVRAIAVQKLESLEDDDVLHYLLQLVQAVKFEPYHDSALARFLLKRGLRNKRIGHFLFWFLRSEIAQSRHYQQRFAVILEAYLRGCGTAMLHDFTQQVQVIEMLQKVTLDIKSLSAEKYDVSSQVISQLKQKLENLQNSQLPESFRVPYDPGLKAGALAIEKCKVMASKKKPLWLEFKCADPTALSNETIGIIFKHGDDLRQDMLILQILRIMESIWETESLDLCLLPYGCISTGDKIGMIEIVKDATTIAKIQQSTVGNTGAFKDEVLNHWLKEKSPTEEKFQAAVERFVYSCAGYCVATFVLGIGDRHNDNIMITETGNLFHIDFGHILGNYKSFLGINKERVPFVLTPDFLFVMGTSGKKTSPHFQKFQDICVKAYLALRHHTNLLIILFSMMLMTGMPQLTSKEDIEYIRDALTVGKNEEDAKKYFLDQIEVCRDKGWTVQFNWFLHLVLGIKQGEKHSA

Row | Compound | IC50 (PI3Kγ (p110γ)) | IC50 (PI3Kδ (p110δ/p85α)) | IC50 [1, 2] | IC50 ([1]; serum starved THP-1 cells, Trifluoroacetate Salt)
1 | C[C@@H](C1CC1)N1Cc2cc(-c3ccnc(-c4ccn[nH]4)c3)cc(S(C)(=O)=O)c2C1=O [Example 15, (S)-5-(2-(1H-Pyrazol-5-yl)pyridin-4-yl)-2-(1-cyclopropylethyl)-7-(methylsulfonyl)isoindolin-1-one, trifluoroacetate salt] | < 0.1 µM | > 2 µM | > 1 µM | 
2 | Cc1cnc(-c2cc(-c3cc4c(c(S(C)(=O)=O)c3)C(=O)N([C@@H](C)C3CC3)C4)ccn2)[nH]1 [Example 16, (S)-2-(1-Cyclopropylethyl)-5-(2-(5-methyl-1H-imidazol-2-yl)pyridin-4-yl)-7-(methylsulfonyl)isoindolin-1-one, Trifluoroacetate Salt] | < 0.1 µM | 0.5 to 2 µM | < 0.1 µM | 
3 | C[C@@H](C1CC1)N1Cc2cc(-c3ccnc(-c4ncc[nH]4)c3)cc(S(C)(=O)=O)c2C1=O [Example 17, (S)-5-(2-(1H-Imidazol-2-yl)pyridin-4-yl)-2-(1-cyclopropylethyl)-7-(methylsulfonyl)isoindolin-1-one, trifluoroacetate salt] | < 0.1 µM | > 2 µM | 0.5 to 1 µM | 
4 | Cc1nc(-c2cc(-c3cc4c(c(C(O)CO)c3)C(=O)N([C@@H](C)C3CC3)C4)ccn2)[nH]c1C (stereo partly drawn) [Example 18, 2-((S)-1-Cyclopropylethyl)-7-(1,2-dihydroxyethyl)-5-(2-(4,5-dimethyl-1H-imidazol-2-yl)pyridin-4-yl)isoindolin-1-one] | < 0.1 µM | > 2 µM | 0.1 to 0.5 µM | 
5 | Cc1nc(-c2cc(-c3cc4c(c(S(C)(=N)=O)c3)C(=O)N([C@@H](C)C3CC3)C4)ccn2)[nH]c1C (stereo partly drawn) [Example 20, 2-((S)-1-Cyclopropylethyl)-5-(2-(4,5-dimethyl-1H-imidazol-2-yl)pyridin-4-yl)-7-(S-methylsulfonimidoyl)isoindolin-1-one, Trifluoroacetate Salt] | < 0.1 µM | > 2 µM |  | 0.1 to 0.5 µM
6 | CN=S(C)(=O)c1cc(-c2ccnc(-c3nc(C)c(C)[nH]3)c2)cc2c1C(=O)N([C@@H](C)C1CC1)C2 (stereo partly drawn) [Example 23, 2-((S)-1-Cyclopropylethyl)-5-(2-(4,5-dimethyl-1H-imidazol-2-yl)pyridin-4-yl)-7-(N,S-dimethylsulfonimidoyl)isoindolin-1-one] | < 0.1 µM | 0.5 to 2 µM | 0.1 to 0.5 µM | 
